Assay results reported in ChEMBL document CHEMBL1201862, “PubChem BioAssay data set” (2004).
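Tested at 5 concentrations; 48 h exposure; 96-well plates; endpoints linearly interpolated, else capped at highest concentration. GI50 = concentration required for 50% inhibition of growth.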 The source made the active and inactive calls. No stated cut-off is given here; in the data, active = GI50 up to about 1.1 µM and inactive = higher.

How the values were obtained:
Assay in all cases: NCI-60 cell line screen, 48 h
[1] = system: 786-0
[2] = system: A498
[3] = system: A549
[4] = system: ACHN
[5] = system: BT-549
[6] = system: CAKI-1
[7] = system: COLO 205
[8] = system: DU-145
[9] = system: EKVX
[10] = system: HCC 2998
[11] = system: HCT-116
[12] = system: HCT-15
[13] = system: HL-60
[14] = system: HOP-62
[15] = system: HOP-92
[16] = system: HT-29
[17] = system: Hs-578T
[18] = system: IGROV-1
[19] = system: K562
[20] = system: LOX IMVI
[21] = system: M14
[22] = system: MCF7
[23] = system: MDA-MB-231
[24] = system: MDA-MB-435
[25] = system: MDA-N
[26] = system: Malme-3M
[27] = system: NCI-H226
[28] = system: NCI-H23
[29] = system: NCI-H460
[30] = system: NCI-H522
[31] = system: NCI/ADR-RES
[32] = system: OVCAR-3
[33] = system: OVCAR-4
[34] = system: OVCAR-5
[35] = system: OVCAR-8
[36] = system: PC-3
[37] = system: RPMI-8226
[38] = system: RXF 393
[39] = system: SF-268
[40] = system: SF-295
[41] = system: SF-539
[42] = system: SK-MEL-28
[43] = system: SK-MEL-2
[44] = system: SK-MEL-5
[45] = system: SK-OV-3
[46] = system: SN12C
[47] = system: SNB-19
[48] = system: SNB-75
[49] = system: SR
[50] = system: SW-620
[51] = system: TK-10
[52] = system: U-251
[53] = system: UACC-257
[54] = system: UACC-62
[55] = system: UO-31

Measured: GI50

CC1=C(/C=C/C(=O)O)C(C)(C)CCC1
inactive: [1] > 100 µM | [2] > 100 µM | [3] > 100 µM | [4] > 100 µM | [5] > 100 µM | [6] > 100 µM | [7] > 100 µM | [8] > 100 µM | [9] > 100 µM | [10] > 100 µM | [11] > 100 µM | [13] > 100 µM | [14] > 100 µM | [15] > 100 µM | [16] > 100 µM | [17] > 100 µM | [18] > 100 µM | [19] > 100 µM | [20] > 100 µM | [21] > 100 µM | [22] > 100 µM | [23] > 100 µM | [24] > 100 µM | [25] > 100 µM | [26] > 100 µM | [27] > 100 µM | [28] > 100 µM | [29] > 100 µM | [30] > 100 µM | [31] > 100 µM | [32] > 100 µM | [33] > 100 µM | [34] > 100 µM | [35] > 100 µM | [36] > 100 µM | [37] > 100 µM | [38] > 100 µM | [39] > 100 µM | [40] > 100 µM | [41] > 100 µM | [42] > 100 µM | [43] > 100 µM | [44] > 100 µM | [45] > 100 µM | [46] > 100 µM | [47] > 100 µM | [48] > 100 µM | [49] > 100 µM | [50] > 100 µM | [51] > 100 µM | [52] > 100 µM | [53] > 100 µM | [54] > 100 µM | [55] > 100 µM
> 100 µM: [12]
